From paper PMC11308155 (Microbial Cell Factories, 2024)
≈ marks a conversion by molar mass, not a printed value. One block for each molecule: values may come before it.

Assays:
[1] = test system: K. pneumoniae clinical isolates; assay: MIC by broth microdilution against clinical isolates of K. pneumoniae; type: cell-based; conditions: for MIC range: K. pneumoniae clinical isolates, 25 isolates
[2] = test system: KPC-2-producer isogenic strain; assay: Disc diffusion test, KPC-2-producer; type: cell-based, E. coli; conditions: imipenem disc 10 µg
CTX-M-15 [3] = molecular target: CTX-M-15 (Escherichia coli, UniProt Q9EXV5); assay: Purified β-lactamase inhibition assay with nitrocefin, CTX-M-15; type: biochemical, E. coli
Chain of CTX-M-15 (Escherichia coli, UniProt Q9EXV5) (Q9EXV5 29-291): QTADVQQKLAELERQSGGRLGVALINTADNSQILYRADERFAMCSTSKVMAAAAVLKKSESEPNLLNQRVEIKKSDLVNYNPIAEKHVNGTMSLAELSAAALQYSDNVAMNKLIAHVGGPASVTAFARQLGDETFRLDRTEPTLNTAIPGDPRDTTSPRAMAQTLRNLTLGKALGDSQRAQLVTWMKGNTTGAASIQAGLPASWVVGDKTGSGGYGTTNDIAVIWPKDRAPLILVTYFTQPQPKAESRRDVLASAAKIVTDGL

KPC-2 = KPC-2 (Klebsiella pneumoniae, UniProt Q9F663); assay: Purified β-lactamase inhibition assay with nitrocefin, KPC-2; type: biochemical, K. pneumoniae
Chain of KPC-2 (Q9F663 25-293, looked up): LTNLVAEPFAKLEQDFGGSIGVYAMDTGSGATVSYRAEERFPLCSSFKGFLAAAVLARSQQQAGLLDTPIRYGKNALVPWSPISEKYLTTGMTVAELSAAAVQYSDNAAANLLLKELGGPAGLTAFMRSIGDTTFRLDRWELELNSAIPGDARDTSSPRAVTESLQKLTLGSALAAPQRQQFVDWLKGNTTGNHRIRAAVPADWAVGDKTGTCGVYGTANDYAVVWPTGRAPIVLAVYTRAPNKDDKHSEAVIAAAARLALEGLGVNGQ

[4] = test system: isogenic strain producing CTX-M-15; assay: Time-kill kinetic assay, CTX-M-15-producing isogenic strain; type: cell-based, E. coli; conditions: cefotaxime 2 µg/mL + inhibitor 4 µg/mL; CTX-M-15 strain
[5] = test system: isogenic strain producing KPC-2; assay: Time-kill kinetic assay, KPC-2-producing isogenic strain; type: cell-based, E. coli; conditions: imipenem 4 µg/mL + inhibitor 4 µg/mL, KPC-2 strain
CTX-M-15 [6] = conditions: ref 17 (Faheem et al.); cited from earlier work
[7] = test system: E. coli clinical isolates; assay: MIC by broth microdilution against clinical isolates of E. coli; type: cell-based
[8] = test system: CTX-M-15-producer isogenic strain; assay: Disc diffusion test, CTX-M-15-producer; type: cell-based, E. coli; conditions: cefotaxime disc 30 µg

Compound: C[C@@H](O)[C@H]1C(=O)N2C(C(=O)O)=C(SCCN=CN)C[C@H]12 [Imipenem, imipenem]
MIC range [1]: 64 to 512 µg/mL | disc diffusion result, antibiotic disc only [2]: resistance

Compound: C[C@]1(Cn2ccnn2)[C@H](C(=O)O)N2C(=O)C[C@H]2S1(=O)=O [Tazobactam, tazobactam]
IC50 (CTX-M-15 [3]): 58.3 µM | Ki (CTX-M-15 [3]; Ki, CTX-M-15, nitrocefin substrate): ~31 µM | IC50 (KPC-2): 69.6 µM | Ki (KPC-2): 29.2 µM | incubation time after which viable count was below the limit of detection [4]: 6 h | incubation time after which viable count was below the limit of detection [5]: 8 h | decrease of the MICs of some cephalosporin antibiotics (CTX-M-15 [6]): 2–16 folds

MIC90 ([7]; Escherichia coli): 512 µg/mL (≈ 1470 µM)
Compound: CC1=C(C(=O)O)N2C(=O)[C@@H](NC(=O)[C@H](N)c3ccccc3)[C@H]2SC1 [Cefalexin, cefalexin]

Compound: O=C(O)[C@H]1/C(=C/CO)O[C@@H]2CC(=O)N21 [Clavulanic acid, clavulanic acid]
incubation time after which viable count was below the limit of detection [4]: 10 h | reduction in CFU ([5]; after 6 h of incubation): 2 log10

Compound: CO/N=C(\C(=O)N[C@@H]1C(=O)N2C(C(=O)O)=C(COC(C)=O)CS[C@H]12)c1csc(N)n1 [Cefotaxime, cefotaxime]
MIC range ([7]; E. coli clinical isolates, 25 isolates): 64 to 128 µg/mL | disc diffusion result, antibiotic disc only [8]: resistance

MIC range [1]: 8 to 256 µg/mL | MIC range ([1]; listed as ertapenem): 8 to 256 µg/mL | MIC90 ([1]; Klebsiella pneumoniae): 32 µg/mL (≈ 67.3 µM)
Compound: C[C@@H](O)[C@H]1C(=O)N2C(C(=O)O)=C(S[C@@H]3CN[C@H](C(=O)Nc4cccc(C(=O)O)c4)C3)[C@H](C)[C@H]12 [Ertapenem, ertapenem]
